The record followed here is PubChem BioAssay (NCI).

Some test systems named below: SF-539 CNS; T-47D breast; TK-10 renal; HCT-15 colon; MOLT-4 leukemia; SK-MEL-2 melanoma; NCI/ADR-RES ovarian; HT29 colon; MDA-MB-435; EKVX NSCLC.
Experiment in all cases: inhibition of tumour cell growth, NCI panel, 48 h

“And” between values parts separate entries of the source, which are not always exact repeats. Identical values can stand only once.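 How tested: cells in 96-well plates exposed to compound for 48 hours at five concentrations. GI50: concentration for 50% inhibition of growth. At the TGI there is no net growth.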

`FC(F)(Sc1nc2ccccc2[nH]1)c1nc2ccccc2o1`: the TGI with SF-539 CNS, with T-47D breast, with TK-10 renal, in the test with HCT-15 colon, with MOLT-4 leukemia and in the test with SK-MEL-2 melanoma was greater than 100 µM in each case. Moreover, the TGI in the test on NCI/ADR-RES ovarian, in the test on HT29 colon and in the test on MDA-MB-435 was greater than 100 µM throughout.

Turning to `NS(=O)(=O)c1cc2c(cc1Cl)NC(C(=O)NNC(=O)c1ccncc1)=NS2(=O)=O`, the TGI in the test on EKVX NSCLC, in the test on SF-539 CNS, with TK-10 renal, in the test with HCT-15 colon, in the test with MOLT-4 leukemia and with SK-MEL-2 melanoma was greater than 100 µM throughout. The molecule also yielded a TGI in the test on HT29 colon greater than 100 µM.

In the case of `Cc1cc(NS(=O)(=O)c2ccc(NC(NC(=O)OC(C)C)(C(F)(F)F)C(F)(F)F)cc2)nc(C)n1`, the TGI in the test on EKVX NSCLC, in the test with SF-539 CNS, with T-47D breast, in the test on TK-10 renal, in the test on HCT-15 colon and in the test on MOLT-4 leukemia was greater than 100 µM in each case. In addition, the TGI in the test on NCI/ADR-RES ovarian, in the test on HT29 colon and with MDA-MB-435 was greater than 100 µM in each case.

Regarding `CC(C)S1=C2C(=O)CC(C)(C)CC2=Nc2ccccc21` (stereo not drawn), the TGI with EKVX NSCLC, with T-47D breast, with TK-10 renal, in the test with HCT-15 colon, in the test on MOLT-4 leukemia and in the test on SK-MEL-2 melanoma was greater than 100 µM in each case. Further, the TGI with NCI/ADR-RES ovarian, in the test with HT29 colon and with MDA-MB-435 was greater than 100 µM each time.

In the case of `Cc1c(N(Cc2ccccc2)Cc2ccccc2)nc(S(C)(=O)=O)nc1S(C)(=O)=O`, the TGI amounted to 3.01 µM in the test on EKVX NSCLC; 25.7 µM in the test with SF-539 CNS; 15.7 µM in the test with TK-10 renal; 6.4 µM with HCT-15 colon; 4.76 µM in the test on MOLT-4 leukemia; 30.6 µM with SK-MEL-2 melanoma. Further, the TGI in the test with HT29 colon is 3.67 µM.

As to `O=C(Nc1nc2ccc([N+](=O)[O-])cc2s1)c1cc([N+](=O)[O-])ccc1Cl`, the TGI in the test with EKVX NSCLC was 8.55 µM; in the test with SF-539 CNS it was 6.71 µM; with T-47D breast, greater than 100 µM; in the test on TK-10 renal it was 32 µM; with HCT-15 colon, 8.3 µM; in the test with MOLT-4 leukemia, greater than 100 µM. Further, the TGI in the test with NCI/ADR-RES ovarian turned out to be 8.23 µM; in the test on HT29 colon, 6.03 µM; in the test on MDA-MB-435, 16.4 µM.

Take `COC(=O)C1CCC(=S)N1C(C)=O` (stereo not drawn): the TGI with EKVX NSCLC, in the test with TK-10 renal, in the test on HCT-15 colon, in the test with MOLT-4 leukemia, in the test with SK-MEL-2 melanoma and with NCI/ADR-RES ovarian was greater than 100 µM in each case. The TGI in the test on HT29 colon and in the test on MDA-MB-435 was greater than 100 µM in each case.

As for `NNC(=O)COc1nc(-c2cccs2)nc2ccc(I)cc12`, the TGI in the test with EKVX NSCLC is 71 µM; with T-47D breast, 21.9 µM; in the test on TK-10 renal it was 44.8 µM; in the test on HCT-15 colon, 56 µM; in the test with MOLT-4 leukemia, greater than 100 µM; in the test with SK-MEL-2 melanoma it was 71.3 µM. Besides, the TGI with NCI/ADR-RES ovarian is 91.9 µM; in the test on HT29 colon it was greater than 100 µM; in the test on MDA-MB-435 it was 47 µM.

Consider `Nc1nc2c(c(-c3ccc(F)cc3)n1)COC/C2=C\c1ccc(F)cc1`, for which the TGI with EKVX NSCLC, with SF-539 CNS, with TK-10 renal, in the test on HCT-15 colon, with MOLT-4 leukemia and in the test on SK-MEL-2 melanoma was greater than 100 µM throughout. The figures for the TGI in the test on NCI/ADR-RES ovarian, in the test on HT29 colon and in the test on MDA-MB-435 were greater than 100 µM, 29.3 µM and greater than 100 µM, respectively.

In the case of `CCc1n[nH]c(=O)n1-c1ccncc1`, the TGI with EKVX NSCLC, with SF-539 CNS, in the test on T-47D breast, with TK-10 renal, in the test on HCT-15 colon and with MOLT-4 leukemia was greater than 100 µM throughout. The TGI with NCI/ADR-RES ovarian, in the test on HT29 colon and with MDA-MB-435 was greater than 100 µM throughout.

As to `Cc1ccc(C)c(C(=O)CC2OC(O)C(Cl)C2Cl)c1` (stereo not drawn), the TGI in the test on EKVX NSCLC was greater than 100 µM; with SF-539 CNS it was 53.2 µM; in the test with TK-10 renal it was greater than 100 µM; in the test on HCT-15 colon it was greater than 100 µM; with MOLT-4 leukemia it was greater than 100 µM; with SK-MEL-2 melanoma it was greater than 100 µM. Moreover, in the test with HT29 colon, the TGI was greater than 100 µM.

For `CNC(=O)N(C)C(=O)c1ccccc1C(=O)N(C)C(=O)NC`, the TGI with EKVX NSCLC, in the test on SF-539 CNS, in the test on T-47D breast, in the test on TK-10 renal, in the test with HCT-15 colon and in the test on MOLT-4 leukemia was greater than 10 µM in each case. Besides, the TGI in the test on SK-MEL-2 melanoma, with NCI/ADR-RES ovarian and in the test on HT29 colon was greater than 10 µM each time.

As for `CCOC(=O)c1sc2nc(SC)nc3c2c1NCN3c1ccccc1Cl`, the TGI in the test with T-47D breast is 60.3 µM; in the test on TK-10 renal, greater than 100 µM; in the test on HCT-15 colon, greater than 100 µM; with MOLT-4 leukemia, greater than 100 µM; in the test with SK-MEL-2 melanoma, greater than 100 µM; in the test on NCI/ADR-RES ovarian it was greater than 100 µM. The TGI in the test with HT29 colon and in the test with MDA-MB-435 was greater than 100 µM throughout.

In the case of `CCc1nc2cc(F)ccc2[nH]c1=O`, the TGI in the test with EKVX NSCLC, in the test on SF-539 CNS, in the test on TK-10 renal, in the test on HCT-15 colon, in the test with MOLT-4 leukemia and in the test on SK-MEL-2 melanoma was greater than 100 µM each time. Besides, the TGI with NCI/ADR-RES ovarian, with HT29 colon and with MDA-MB-435 was greater than 100 µM in each case.

With `COC1=C(C)C(=O)C2=C(C1=O)C1C3CC4=C(C(=O)C(OC)=C(C)C4=O)C(CNC(=O)C(C)=O)N3C(C#N)C(C2)N1C` (stereo not drawn), the GI50 with T-47D breast was 0.000553 µM; in the test with NCI/ADR-RES ovarian, 1.16 µM; in the test on MDA-MB-435, 0.00034 µM. Also, the TGI in the test on T-47D breast is 0.00608 µM; with TK-10 renal, 3.76 µM; with NCI/ADR-RES ovarian, 4.05 µM and 2.76 µM; in the test on MDA-MB-435 it was 0.00124 µM and 0.00553 µM.

For `CC(=O)Oc1cc(OC(C)=O)c2c(c1C)CC[C@@H]1[C@@H]2CC[C@]2(C)[C@@H](OC(C)=O)CC[C@@H]12`, the TGI with EKVX NSCLC worked out at 28 µM; in the test on SF-539 CNS, 30.4 µM; in the test with TK-10 renal, 35 µM; in the test on HCT-15 colon it was 33.3 µM; in the test with MOLT-4 leukemia, 36.1 µM; with NCI/ADR-RES ovarian, 57.6 µM. For the same molecule, the values for the TGI in the test on HT29 colon and with MDA-MB-435 were 29.8 µM and 31.3 µM, respectively.
